# Experiments:
# GR (h) = biological target: T1, GR (h) (Homo sapiens, UniProt P04150); test: Abuse liability binding screen, GR (h) (agonist radioligand); conditions: 2.5E−05M
# T1 sequence (P04150 1-777): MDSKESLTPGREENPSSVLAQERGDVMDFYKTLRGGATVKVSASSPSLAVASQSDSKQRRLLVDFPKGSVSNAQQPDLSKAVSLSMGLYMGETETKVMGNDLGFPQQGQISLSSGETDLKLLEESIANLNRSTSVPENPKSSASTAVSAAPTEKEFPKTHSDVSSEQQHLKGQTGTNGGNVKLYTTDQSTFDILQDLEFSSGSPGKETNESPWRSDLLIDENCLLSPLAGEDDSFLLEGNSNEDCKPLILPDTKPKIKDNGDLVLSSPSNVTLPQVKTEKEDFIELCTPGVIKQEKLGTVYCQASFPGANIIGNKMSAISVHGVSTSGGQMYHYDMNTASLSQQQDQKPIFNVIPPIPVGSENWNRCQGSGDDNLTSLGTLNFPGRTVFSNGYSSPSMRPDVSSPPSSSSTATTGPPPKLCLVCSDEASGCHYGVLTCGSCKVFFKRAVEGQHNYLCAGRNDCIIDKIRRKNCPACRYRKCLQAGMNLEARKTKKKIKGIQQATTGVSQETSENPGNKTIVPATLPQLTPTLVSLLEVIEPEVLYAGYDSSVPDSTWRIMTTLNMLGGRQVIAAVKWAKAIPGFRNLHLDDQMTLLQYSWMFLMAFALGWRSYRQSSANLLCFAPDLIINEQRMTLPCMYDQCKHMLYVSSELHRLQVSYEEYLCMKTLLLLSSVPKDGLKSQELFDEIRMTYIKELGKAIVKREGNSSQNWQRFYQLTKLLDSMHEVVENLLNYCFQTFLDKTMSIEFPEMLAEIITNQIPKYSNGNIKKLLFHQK
# Protocol: (§1) […]. The abuse liability screen included 44 targets (receptors, transporters, on gated-channel systems) related to the dopamine, norepinephrine, serotonin, gamma-aminobutyric acid (GABA), acetylcholine, N-methyl-D-aspartate (NMDA) cannabinoid and opioid neurotransmitter systems as recommended in FDA Draft guidance on Assessment of Abuse Potential of Drugs, January 2010.
# (§2) Compound binding was calculated as a % inhibition of the binding of a radioactively labeled ligand specific for each target.
# (§3) Results showing an inhibition or stimulation higher than 50% are considered to represent significant effects of the test compounds.
# [1] = Plasma Cmax in HD patients; conditions: read-out: Cmax in HD patients, HD patients
# β1 (h) = β1 (h) (Homo sapiens, UniProt P08588); test: Abuse liability binding screen, β1 (h) (agonist radioligand); conditions: 2.5E−05M
# Protocol: as §1, §2, §3
# [2] = tested on: glycine (strychnine−insensitive); format: binding; conditions: 2.5E−05M
# Protocol: as §2
# GABAA1 (h) (α1, β2, γ2) = GABAA1 (h) (α1, β2, γ2) (Homo sapiens, UniProt P14867+P18507+P47870); test: Abuse liability binding screen, GABAA1 (h) (α1, β2, γ2) (antagonist radioligand); conditions: 2.5E−05M
# Protocol: as §1, §2, §3
# δ2 (DOP) (h) = δ2 (DOP) (h) (Homo sapiens, UniProt P41143); test: Binding screen and IC50 determination, δ2 (DOP) (h) (agonist radioligand); conditions: 2.5E−05M
# Protocol: as §2
# CB2 (h) = CB2 (h) (Homo sapiens, UniProt P34972); test: Abuse liability binding screen, CB2 (h) (agonist radioligand); conditions: 2.5E−05M
# Protocol: as §1, §2, §3
# B2 (h) = B2 (h) (Homo sapiens, UniProt P07550); test: Abuse liability binding screen, B2 (h) (agonist radioligand); conditions: 2.5E−05M
# Protocol: as §1, §2, §3
# Na^+ channel (site 2) = test: Abuse liability binding screen, Na+ channel (site 2) (antagonist radioligand); conditions: 2.5E−05M
# Protocol: as §2
# α1A (h) = biological target: T2, α1A (h) (Homo sapiens, UniProt P35348); test: Abuse liability binding screen, α1A (h) (antagonist radioligand); conditions: 2.5E−05M
# T2 sequence (P35348 1-466): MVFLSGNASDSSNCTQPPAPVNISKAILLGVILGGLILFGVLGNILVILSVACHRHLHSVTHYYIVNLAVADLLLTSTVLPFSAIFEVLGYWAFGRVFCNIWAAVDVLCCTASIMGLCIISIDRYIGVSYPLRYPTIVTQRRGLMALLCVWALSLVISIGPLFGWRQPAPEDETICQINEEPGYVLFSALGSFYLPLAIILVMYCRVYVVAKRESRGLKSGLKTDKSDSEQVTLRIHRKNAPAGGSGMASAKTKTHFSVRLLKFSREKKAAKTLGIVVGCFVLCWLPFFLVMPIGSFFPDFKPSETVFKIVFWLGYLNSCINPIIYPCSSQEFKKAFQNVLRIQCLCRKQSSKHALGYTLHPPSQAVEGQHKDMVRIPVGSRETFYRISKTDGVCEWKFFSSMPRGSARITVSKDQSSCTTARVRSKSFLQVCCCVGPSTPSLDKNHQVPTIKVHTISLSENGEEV
# Protocol: as §1, §2, §3
# α2C (h) = biological target: T3, α2C (h) (Homo sapiens, UniProt P18825); test: Abuse liability binding screen, α2C (h) (antagonist radioligand); conditions: 2.5E−05M
# T3 sequence (P18825 1-462): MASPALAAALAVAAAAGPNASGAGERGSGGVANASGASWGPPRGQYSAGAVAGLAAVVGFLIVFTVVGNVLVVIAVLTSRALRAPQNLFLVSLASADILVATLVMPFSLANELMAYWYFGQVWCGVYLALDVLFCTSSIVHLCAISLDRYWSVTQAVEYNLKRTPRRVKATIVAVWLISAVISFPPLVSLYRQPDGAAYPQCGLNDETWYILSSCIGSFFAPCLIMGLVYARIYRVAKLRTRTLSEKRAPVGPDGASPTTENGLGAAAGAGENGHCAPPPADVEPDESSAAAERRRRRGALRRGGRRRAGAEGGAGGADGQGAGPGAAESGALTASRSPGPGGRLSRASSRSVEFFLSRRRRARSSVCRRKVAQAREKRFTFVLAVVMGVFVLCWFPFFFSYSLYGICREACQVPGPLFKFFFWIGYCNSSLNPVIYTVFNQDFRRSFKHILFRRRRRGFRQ
# Protocol: as §1, §2, §3
# Dopamine transporter (h) = Dopamine transporter (h) (Homo sapiens, UniProt Q01959); test: Abuse liability binding screen, Dopamine transporter (h) (antagonist radioligand); conditions: 2.5E−05M
# Protocol: as §1, §2, §3
# N neuronal α7 (h) = N neuronal α7 (h) (Homo sapiens, UniProt P36544); test: Abuse liability binding screen, N neuronal α7 (h) (antagonist radioligand); conditions: 2.5E−05M
# Protocol: as §1, §2, §3
# Dopamine transporter (h), sequence (Q01959 whole entry): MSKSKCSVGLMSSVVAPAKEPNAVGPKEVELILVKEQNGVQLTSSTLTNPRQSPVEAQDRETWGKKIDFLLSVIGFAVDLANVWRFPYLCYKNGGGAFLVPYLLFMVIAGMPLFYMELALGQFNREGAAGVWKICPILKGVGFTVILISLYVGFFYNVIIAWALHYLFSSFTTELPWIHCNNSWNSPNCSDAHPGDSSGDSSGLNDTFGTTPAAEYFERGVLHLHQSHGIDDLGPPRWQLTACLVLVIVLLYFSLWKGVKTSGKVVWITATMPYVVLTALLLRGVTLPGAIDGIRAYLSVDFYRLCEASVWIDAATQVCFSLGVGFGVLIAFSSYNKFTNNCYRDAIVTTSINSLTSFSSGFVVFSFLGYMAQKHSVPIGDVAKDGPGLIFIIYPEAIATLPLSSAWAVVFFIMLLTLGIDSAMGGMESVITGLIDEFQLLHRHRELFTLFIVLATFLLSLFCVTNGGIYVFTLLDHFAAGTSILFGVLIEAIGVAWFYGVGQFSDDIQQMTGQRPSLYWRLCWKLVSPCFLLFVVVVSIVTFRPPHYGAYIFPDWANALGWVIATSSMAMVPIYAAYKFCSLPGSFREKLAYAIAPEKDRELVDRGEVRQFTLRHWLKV
# GABAA1 (h) (α1, β2, γ2), sequence (P14867 28-456): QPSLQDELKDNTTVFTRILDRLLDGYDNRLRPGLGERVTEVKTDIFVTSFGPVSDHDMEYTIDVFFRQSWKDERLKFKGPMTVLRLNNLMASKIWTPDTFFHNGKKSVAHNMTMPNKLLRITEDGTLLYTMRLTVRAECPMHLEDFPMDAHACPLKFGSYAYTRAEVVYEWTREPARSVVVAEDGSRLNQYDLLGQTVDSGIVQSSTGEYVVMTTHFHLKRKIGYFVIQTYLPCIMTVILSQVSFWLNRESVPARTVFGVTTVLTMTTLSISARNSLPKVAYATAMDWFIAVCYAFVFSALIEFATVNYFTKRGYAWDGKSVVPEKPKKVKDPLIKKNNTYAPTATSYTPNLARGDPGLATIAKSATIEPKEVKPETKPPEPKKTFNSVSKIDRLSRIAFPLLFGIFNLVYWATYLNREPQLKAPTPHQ
# GABAA1 (h) (α1, β2, γ2), sequence (P47870 25-512 limits assumed): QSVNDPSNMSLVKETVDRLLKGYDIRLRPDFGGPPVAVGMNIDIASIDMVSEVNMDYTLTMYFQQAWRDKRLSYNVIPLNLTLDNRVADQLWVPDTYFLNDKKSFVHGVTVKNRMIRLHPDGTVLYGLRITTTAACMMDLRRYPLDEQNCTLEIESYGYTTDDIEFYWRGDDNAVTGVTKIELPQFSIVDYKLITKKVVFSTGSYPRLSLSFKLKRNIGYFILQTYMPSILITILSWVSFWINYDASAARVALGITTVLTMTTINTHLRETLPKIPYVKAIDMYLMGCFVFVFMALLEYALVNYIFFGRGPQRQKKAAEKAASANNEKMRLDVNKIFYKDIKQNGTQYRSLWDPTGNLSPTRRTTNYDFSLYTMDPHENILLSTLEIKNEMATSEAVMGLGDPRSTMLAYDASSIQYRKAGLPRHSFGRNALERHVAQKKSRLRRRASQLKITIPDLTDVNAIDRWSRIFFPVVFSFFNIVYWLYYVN
# GABAA1 (h) (α1, β2, γ2), sequence (P18507 40-475): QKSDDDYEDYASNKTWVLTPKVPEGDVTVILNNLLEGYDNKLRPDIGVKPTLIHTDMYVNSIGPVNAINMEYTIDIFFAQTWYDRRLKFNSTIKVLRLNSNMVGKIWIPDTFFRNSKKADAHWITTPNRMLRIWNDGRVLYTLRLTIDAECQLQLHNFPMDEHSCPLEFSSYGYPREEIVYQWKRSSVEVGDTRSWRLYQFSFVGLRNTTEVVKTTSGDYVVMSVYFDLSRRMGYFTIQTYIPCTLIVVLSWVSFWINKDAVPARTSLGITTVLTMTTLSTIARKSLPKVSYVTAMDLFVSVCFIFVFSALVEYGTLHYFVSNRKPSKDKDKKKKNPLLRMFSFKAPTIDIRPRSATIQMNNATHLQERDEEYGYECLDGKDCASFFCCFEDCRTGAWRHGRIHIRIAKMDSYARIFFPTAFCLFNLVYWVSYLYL
# B2 (h), sequence (P07550 whole entry): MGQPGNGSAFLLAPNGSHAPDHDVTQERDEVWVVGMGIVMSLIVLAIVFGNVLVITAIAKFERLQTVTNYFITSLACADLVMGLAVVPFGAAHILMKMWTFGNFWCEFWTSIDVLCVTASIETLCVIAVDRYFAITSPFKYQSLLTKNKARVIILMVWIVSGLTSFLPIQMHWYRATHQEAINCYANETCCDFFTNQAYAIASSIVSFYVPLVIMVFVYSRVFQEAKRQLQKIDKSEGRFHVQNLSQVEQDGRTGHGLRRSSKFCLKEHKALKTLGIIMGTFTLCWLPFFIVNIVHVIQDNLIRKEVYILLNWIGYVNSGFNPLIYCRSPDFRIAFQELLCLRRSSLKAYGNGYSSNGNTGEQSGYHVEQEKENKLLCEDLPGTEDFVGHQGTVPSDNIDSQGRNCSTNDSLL
# CB2 (h), sequence (P34972 whole entry): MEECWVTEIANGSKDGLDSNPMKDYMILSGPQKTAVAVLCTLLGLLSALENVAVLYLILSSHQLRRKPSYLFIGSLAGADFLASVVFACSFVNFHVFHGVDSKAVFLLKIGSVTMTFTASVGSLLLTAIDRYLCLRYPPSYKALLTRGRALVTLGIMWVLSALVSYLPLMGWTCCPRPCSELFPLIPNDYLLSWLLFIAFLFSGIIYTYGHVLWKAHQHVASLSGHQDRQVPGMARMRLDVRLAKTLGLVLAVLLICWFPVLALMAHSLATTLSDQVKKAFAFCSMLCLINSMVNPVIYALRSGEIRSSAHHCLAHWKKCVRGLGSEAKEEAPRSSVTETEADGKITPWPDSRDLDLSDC
# β1 (h), sequence (P08588 whole entry): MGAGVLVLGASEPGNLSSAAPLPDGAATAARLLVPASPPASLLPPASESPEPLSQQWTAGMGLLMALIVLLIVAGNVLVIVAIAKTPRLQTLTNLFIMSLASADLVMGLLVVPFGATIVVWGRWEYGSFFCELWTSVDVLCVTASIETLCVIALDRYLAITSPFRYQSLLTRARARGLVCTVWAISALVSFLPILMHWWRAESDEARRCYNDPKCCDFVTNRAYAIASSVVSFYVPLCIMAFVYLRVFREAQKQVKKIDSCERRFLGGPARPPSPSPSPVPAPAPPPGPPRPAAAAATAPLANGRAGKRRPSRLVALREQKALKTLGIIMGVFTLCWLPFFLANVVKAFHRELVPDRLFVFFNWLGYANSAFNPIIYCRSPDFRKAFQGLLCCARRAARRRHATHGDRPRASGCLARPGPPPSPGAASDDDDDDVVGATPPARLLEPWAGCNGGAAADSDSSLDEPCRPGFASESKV
# N neuronal α7 (h), sequence (P36544 23-502): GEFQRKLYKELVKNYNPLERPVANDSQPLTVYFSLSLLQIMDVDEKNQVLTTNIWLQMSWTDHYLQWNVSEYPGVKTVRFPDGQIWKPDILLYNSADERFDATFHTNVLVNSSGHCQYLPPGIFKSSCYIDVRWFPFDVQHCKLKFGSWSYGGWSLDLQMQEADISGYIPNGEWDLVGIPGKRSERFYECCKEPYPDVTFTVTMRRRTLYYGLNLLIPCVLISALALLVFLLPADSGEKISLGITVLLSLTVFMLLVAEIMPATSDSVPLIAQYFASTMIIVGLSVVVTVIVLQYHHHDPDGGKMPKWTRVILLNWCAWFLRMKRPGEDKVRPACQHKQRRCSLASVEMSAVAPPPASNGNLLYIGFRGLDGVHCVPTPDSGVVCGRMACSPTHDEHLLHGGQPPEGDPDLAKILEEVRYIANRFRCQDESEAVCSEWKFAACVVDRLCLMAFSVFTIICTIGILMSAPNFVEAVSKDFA
# δ2 (DOP) (h), sequence (P41143 whole entry): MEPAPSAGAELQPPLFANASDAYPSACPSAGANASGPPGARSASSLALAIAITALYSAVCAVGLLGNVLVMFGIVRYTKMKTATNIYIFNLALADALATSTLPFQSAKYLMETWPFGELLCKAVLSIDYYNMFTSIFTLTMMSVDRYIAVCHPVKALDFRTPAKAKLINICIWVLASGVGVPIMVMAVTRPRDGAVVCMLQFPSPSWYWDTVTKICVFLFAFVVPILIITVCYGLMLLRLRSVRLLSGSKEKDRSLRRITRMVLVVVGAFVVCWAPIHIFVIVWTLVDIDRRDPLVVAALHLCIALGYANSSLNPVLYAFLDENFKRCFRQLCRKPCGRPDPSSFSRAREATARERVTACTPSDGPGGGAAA
smiles,measurement,setting,value
"O=C(O)[C@H]1O[C@@H](Oc2ccc3c4c2O[C@H]2[C@@H](O)CC[C@@]5(O)[C@@H](C3)N(CC3CCC3)CC[C@]425)[C@H](O)[C@@H](O)[C@@H]1O [Compound M5, nalbuphine-3-beta-D-glucuronid]",% Inhibition of Control Specific Binding 1st,GR (h),0.8%
same,% Inhibition of Control Specific Binding 2nd,GR (h),−5.4%
same,% Inhibition of Control Specific Binding Mean,GR (h),−2.3%
same,Cmax,[1],10.4 µM
same,% Inhibition of Control Specific Binding 1st,β1 (h),−5.4%
same,% Inhibition of Control Specific Binding 2nd,β1 (h),4.8%
same,% Inhibition of Control Specific Binding Mean,β1 (h),−0.3%
same,% Inhibition of Control Specific Binding 1st,[2],−7.7%
same,% Inhibition of Control Specific Binding 2nd,[2],−8.6%
same,% Inhibition of Control Specific Binding Mean,[2],−8.1%
same,% Inhibition of Control Specific Binding 1st,"GABAA1 (h) (α1, β2, γ2)",−1.4%
same,% Inhibition of Control Specific Binding 2nd,"GABAA1 (h) (α1, β2, γ2)",−0.8%
same,% Inhibition of Control Specific Binding Mean,"GABAA1 (h) (α1, β2, γ2)",−1.1%
same,% Inhibition of Control Specific Binding 1st,δ2 (DOP) (h),13.9%
same,% Inhibition of Control Specific Binding 2nd,δ2 (DOP) (h),18.2%
same,% Inhibition of Control Specific Binding 1st,CB2 (h),−13.1%
same,% Inhibition of Control Specific Binding 2nd,CB2 (h),−23.1%
same,% Inhibition of Control Specific Binding Mean,CB2 (h),−18.1%
same,% Inhibition of Control Specific Binding 1st,B2 (h),−4.6%
same,% Inhibition of Control Specific Binding 2nd,B2 (h),15.3%
same,% Inhibition of Control Specific Binding Mean,B2 (h),5.4%
same,% Inhibition of Control Specific Binding 1st,Na^+ channel (site 2),−2.1%
same,% Inhibition of Control Specific Binding 2nd,Na^+ channel (site 2),24.8%
same,% Inhibition of Control Specific Binding Mean,Na^+ channel (site 2),11.4%
same,% Inhibition of Control Specific Binding 1st,α1A (h),−0.1%
same,% Inhibition of Control Specific Binding 2nd,α1A (h),3.4%
same,% Inhibition of Control Specific Binding Mean,α1A (h),1.6%
same,% Inhibition of Control Specific Binding 1st,α2C (h),12.1%
same,% Inhibition of Control Specific Binding 2nd,α2C (h),6.5%
same,% Inhibition of Control Specific Binding Mean,α2C (h),9.3%
same,% Inhibition of Control Specific Binding 1st,Dopamine transporter (h),−2.0%
same,% Inhibition of Control Specific Binding 2nd,Dopamine transporter (h),12.1%
same,% Inhibition of Control Specific Binding Mean,Dopamine transporter (h),5.1%
same,% Inhibition of Control Specific Binding 1st,N neuronal α7 (h),−6.0%
same,% Inhibition of Control Specific Binding 2nd,N neuronal α7 (h),−0.4%
same,% Inhibition of Control Specific Binding Mean,N neuronal α7 (h),−3.2%
